The structures appear in SMILES notation. “And” between values parts separate entries of the source, which are not always exact repeats. Equal values may be shown once.

The test concerns 287954-098-R-J1 tumor spheroid viability. The experiment in a line: Anticancer human tumor 287954-098-R-J1 patient-derived Ewing sarcoma cell line growth inhibition. Particulars: spheroids with HUVEC and MSC; for viability, T/C: stronger effect = lower value. In short, it runs like this: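 Complex tumor spheroids combined malignant cells with endothelial cells and mesenchymal stem cells. DNA-damaging drugs and DNA repair inhibitors were tested alone and in combination, at half-log dilutions down from clinical Cmax (top 10 microM if Cmax unknown), 0.25% DMSO final.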
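Note: spheroids exposed to compound for 7 days before viability readout.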
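Throughout, for viability, T/C: luminescent signal taken as surrogate of viable cell content; 100% = DMSO vehicle control viability and lower means growth inhibition.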

On to `COc1cc(C)[nH]c(=O)c1CN1CCc2c(Cl)cc(C(OC)C3COC3)c(Cl)c2C1=O` (stereo not given) + CC[C@@]1(O)C(=O)OCc2c1cc1n(c2=O)Cc2cc3c(CN(C)C)c(O)ccc3nc2-1, for which the IC50 (usually the point on the concentration scale where inhibition reaches its midpoint) (curve of first compound, second compound 0.003 µM) was over 10 µM; the half-maximal inhibitory concentration (IC50) (curve of first compound, second compound 0.00949 µM) was over 10 µM; the IC50 (curve of first compound, second compound 0.03 µM) stood at 0.117 µM; the 50% inhibitory concentration (IC50) (curve of first compound, second compound 0.0949 µM) is under 0.0316 µM; the IC50 (curve of first compound, second compound 0.3 µM) was under 0.0316 µM. Besides, the viability, T/C (commonly the result in the treated group divided by that in the control group, in per cent) is 94.9% (second compound 0.003 µM, first compound 0.0316 µM); 94.7% (second compound 0.003 µM, first compound 0.1 µM); 99.9% (second compound 0.003 µM, first compound 0.316 µM); 95.5% (second compound 0.003 µM, first compound 1 µM); 88% (second compound 0.003 µM, first compound 3.16 µM); 93% (second compound 0.003 µM, first compound 10 µM). For the same molecule, the viability, T/C by setting is: (second compound 0.00949 µM, first compound 0.0316 µM) 108%; (second compound 0.00949 µM, first compound 0.1 µM) 99.6%; (second compound 0.00949 µM, first compound 0.316 µM) 92.3%; (second compound 0.00949 µM, first compound 1 µM) 89.1%; (second compound 0.00949 µM, first compound 3.16 µM) 95.1%; (second compound 0.00949 µM, first compound 10 µM) 92.8%. Besides, the viability, T/C was 63.6% (second compound 0.03 µM, first compound 0.0316 µM); 36.6% (second compound 0.03 µM, first compound 0.1 µM); 50.9% (second compound 0.03 µM, first compound 0.316 µM); 36.4% (second compound 0.03 µM, first compound 1 µM); 28% (second compound 0.03 µM, first compound 3.16 µM); 2.56% (second compound 0.03 µM, first compound 10 µM). In addition, the viability, T/C is, setting by setting: (second compound 0.0949 µM, first compound 0.0316 µM) 1.65%; (second compound 0.0949 µM, first compound 0.1 µM) 1.55%; (second compound 0.0949 µM, first compound 0.316 µM) 1.34%; (second compound 0.0949 µM, first compound 1 µM) 1.37%; (second compound 0.0949 µM, first compound 3.16 µM) 1.24%; (second compound 0.0949 µM, first compound 10 µM) 1.63%. The viability, T/C (second compound 0.3 µM, first compound 0.0316 µM) was 1.38%; the viability, T/C (second compound 0.3 µM, first compound 0.1 µM) was 1.47%; the viability, T/C (second compound 0.3 µM, first compound 0.316 µM) is 1.35%; the viability, T/C (second compound 0.3 µM, first compound 1 µM) is 1.69%; the viability, T/C (second compound 0.3 µM, first compound 3.16 µM) was 1.33%; the viability, T/C (second compound 0.3 µM, first compound 10 µM) is 1.57%.

Consider `COc1cc(C)[nH]c(=O)c1CN1CCc2c(Cl)cc(C(OC)C3COC3)c(Cl)c2C1=O` (stereo not given), for which the viability, T/C (compound 0.0316 µM) was 97.7% and 96.7% and 96.6%; the viability, T/C (compound 0.1 µM) is 94.9% and 102% and 98.6%; the viability, T/C (compound 0.316 µM) was 82.7% and 91.7% and 95.5%; the viability, T/C (compound 1 µM) is 93.9% and 89.7% and 90.5%; the viability, T/C (compound 3.16 µM) was 95.1% and 83.6% and 94.9%; the viability, T/C (compound 10 µM) was 93% and 92.8% and 93.6%. For the same molecule, the 50% inhibitory concentration (IC50) (curve of compound) was over 10 µM.

Regarding `[2H]c1nc(C)nc([2H])c1-c1cc(NC[C@@H](C)c2cccc3c(C(=O)NC)ccnc23)ncn1`, the viability, T/C runs as follows: (compound 0.0316 µM) 96.4% and 109% and 110%; (compound 0.1 µM) 101% and 107% and 112%; (compound 0.316 µM) 95.5% and 108% and 106%; (compound 1 µM) 104% and 102% and 108%; (compound 3.16 µM) 98.3% and 96.3% and 100%; (compound 10 µM) 101% and 103% and 109%. Also, the IC50 (curve of compound) is over 10 µM.

`O=C(c1cc(Cc2n[nH]c(=O)c3ccccc23)ccc1F)N1CCN(C(=O)C2CC2)CC1`: the viability, T/C reads like this: (compound 0.0949 µM) 103%; (compound 0.3 µM) 91.4% and 92.4% and 106%; (compound 0.949 µM) 91.6% and 89.5% and 109%; (compound 3 µM) 90.2% and 93.9% and 108%; (compound 9.49 µM) 87.1% and 76.8% and 96.1%. Moreover, the half-maximal inhibitory concentration (IC50) (curve of compound) is 21.4 µM and 14.9 µM and 20.2 µM.

The values are drawn from PubChem BioAssay AID1845194 (Molecular Pharmacology Branch, DTP, NCI, 2023).
